From patent US10023570B2 (Array BioPharma, Inc., priority 2015, dated 2018)
Counter-ions that a name gives are not always drawn. Like-named read-outs stand apart in the source and are kept apart here.

Key:
[1] = target: Kif5b-RET fusion protein in HEK-293 cells (Homo sapiens, UniProt P07949); experiment: cell-based
[2] = target: human KDR protein in HEK-293 cells (Homo sapiens (Human), UniProt P35968); experiment: KDR Cell Assay (phospho-KDR in HEK-293 cells expressing inducible KDR); assay type: cell-based; conditions: pKDR Cell HEK 10% FBS IC50, HEK-293 cells expressing inducible KDR, VEGF stimulated
Chain of human KDR protein in HEK-293 cells (P35968 20-1356): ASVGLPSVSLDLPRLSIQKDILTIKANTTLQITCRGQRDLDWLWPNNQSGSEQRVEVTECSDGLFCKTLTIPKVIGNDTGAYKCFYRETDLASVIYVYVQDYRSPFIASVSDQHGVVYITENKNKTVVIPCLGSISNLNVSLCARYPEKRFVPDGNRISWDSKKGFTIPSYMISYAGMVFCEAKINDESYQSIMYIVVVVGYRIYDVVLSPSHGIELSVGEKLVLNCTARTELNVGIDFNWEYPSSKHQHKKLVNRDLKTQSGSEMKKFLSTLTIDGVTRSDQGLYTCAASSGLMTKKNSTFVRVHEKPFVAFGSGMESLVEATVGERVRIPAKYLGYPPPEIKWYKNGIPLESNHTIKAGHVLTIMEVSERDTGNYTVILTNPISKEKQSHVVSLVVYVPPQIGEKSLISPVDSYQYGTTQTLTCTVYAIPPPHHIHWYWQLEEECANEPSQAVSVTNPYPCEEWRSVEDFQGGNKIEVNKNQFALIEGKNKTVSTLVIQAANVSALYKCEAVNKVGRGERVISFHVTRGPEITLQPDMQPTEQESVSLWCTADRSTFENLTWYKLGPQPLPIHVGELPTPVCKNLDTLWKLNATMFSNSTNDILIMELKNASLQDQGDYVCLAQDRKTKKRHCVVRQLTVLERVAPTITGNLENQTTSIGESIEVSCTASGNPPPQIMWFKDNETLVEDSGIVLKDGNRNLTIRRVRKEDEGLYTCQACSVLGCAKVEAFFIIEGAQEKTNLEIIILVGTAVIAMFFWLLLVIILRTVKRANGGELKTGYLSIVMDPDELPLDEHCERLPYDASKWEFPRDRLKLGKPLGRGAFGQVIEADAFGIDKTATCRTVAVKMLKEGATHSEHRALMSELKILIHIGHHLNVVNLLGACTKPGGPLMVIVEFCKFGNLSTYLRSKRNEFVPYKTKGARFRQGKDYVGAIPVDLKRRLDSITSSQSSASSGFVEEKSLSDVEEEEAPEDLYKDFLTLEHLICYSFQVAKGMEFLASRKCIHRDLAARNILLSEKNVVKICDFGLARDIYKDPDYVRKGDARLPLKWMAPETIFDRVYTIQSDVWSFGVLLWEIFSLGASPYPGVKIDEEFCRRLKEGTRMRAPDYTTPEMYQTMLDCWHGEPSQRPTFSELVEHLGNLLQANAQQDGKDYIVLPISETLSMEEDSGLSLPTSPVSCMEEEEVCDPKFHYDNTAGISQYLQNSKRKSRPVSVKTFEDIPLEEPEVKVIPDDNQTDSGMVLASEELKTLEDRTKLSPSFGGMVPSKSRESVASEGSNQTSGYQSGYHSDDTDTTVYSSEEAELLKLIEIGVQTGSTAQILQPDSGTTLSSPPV
Method in brief: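 HEK-293 cells with inducible human KDR were treated with compound for 1 h in DMEM (0.25% DMSO final), then lysed. Phospho-KDR was quantified by Meso Scale immunoassay, expressed as percent of control, and IC50 taken where a 4-parameter logistic fit crossed 50 POC.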

[3] = target: N-terminal GST tagged recombinant human RET cytoplasmic domain (aa 658-end), wild type RET kinase (Homo sapiens (Human), UniProt P07949); experiment: RET Enzyme Assay (HTRF KinEASE-TK), wild type RET; assay type: biochemical
Chain of N-terminal GST tagged recombinant human RET cytoplasmic domain (aa 658-end), wild type RET kinase (P07949 658-1114): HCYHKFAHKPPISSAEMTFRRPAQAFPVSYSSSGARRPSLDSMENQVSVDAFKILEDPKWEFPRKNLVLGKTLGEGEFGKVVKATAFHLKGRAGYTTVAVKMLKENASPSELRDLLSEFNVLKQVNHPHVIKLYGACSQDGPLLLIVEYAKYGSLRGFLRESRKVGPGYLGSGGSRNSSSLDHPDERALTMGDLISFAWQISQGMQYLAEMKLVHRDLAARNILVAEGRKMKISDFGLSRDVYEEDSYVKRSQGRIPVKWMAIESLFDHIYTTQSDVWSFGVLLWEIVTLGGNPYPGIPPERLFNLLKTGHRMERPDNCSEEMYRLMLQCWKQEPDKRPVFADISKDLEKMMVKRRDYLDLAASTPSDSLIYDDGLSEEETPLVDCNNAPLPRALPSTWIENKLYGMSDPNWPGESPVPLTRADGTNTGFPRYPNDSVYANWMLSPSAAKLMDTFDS

[4] = read-out: KIF5B-RET pTYR1062 Cell IC50
[5] = HEK-293 cells expressing Kif5b-RET, read-out: KIF5B-RET pTYR1062 Cell IC50
[6] = HEK-293 cells expressing Kif5b-RET, phospho-RET(Tyr1062), read-out: KIF5B-RET pTYR1062 Cell IC50

Chain of Kif5b-RET fusion protein in HEK-293 cells (P07949 29-1114 limits assumed): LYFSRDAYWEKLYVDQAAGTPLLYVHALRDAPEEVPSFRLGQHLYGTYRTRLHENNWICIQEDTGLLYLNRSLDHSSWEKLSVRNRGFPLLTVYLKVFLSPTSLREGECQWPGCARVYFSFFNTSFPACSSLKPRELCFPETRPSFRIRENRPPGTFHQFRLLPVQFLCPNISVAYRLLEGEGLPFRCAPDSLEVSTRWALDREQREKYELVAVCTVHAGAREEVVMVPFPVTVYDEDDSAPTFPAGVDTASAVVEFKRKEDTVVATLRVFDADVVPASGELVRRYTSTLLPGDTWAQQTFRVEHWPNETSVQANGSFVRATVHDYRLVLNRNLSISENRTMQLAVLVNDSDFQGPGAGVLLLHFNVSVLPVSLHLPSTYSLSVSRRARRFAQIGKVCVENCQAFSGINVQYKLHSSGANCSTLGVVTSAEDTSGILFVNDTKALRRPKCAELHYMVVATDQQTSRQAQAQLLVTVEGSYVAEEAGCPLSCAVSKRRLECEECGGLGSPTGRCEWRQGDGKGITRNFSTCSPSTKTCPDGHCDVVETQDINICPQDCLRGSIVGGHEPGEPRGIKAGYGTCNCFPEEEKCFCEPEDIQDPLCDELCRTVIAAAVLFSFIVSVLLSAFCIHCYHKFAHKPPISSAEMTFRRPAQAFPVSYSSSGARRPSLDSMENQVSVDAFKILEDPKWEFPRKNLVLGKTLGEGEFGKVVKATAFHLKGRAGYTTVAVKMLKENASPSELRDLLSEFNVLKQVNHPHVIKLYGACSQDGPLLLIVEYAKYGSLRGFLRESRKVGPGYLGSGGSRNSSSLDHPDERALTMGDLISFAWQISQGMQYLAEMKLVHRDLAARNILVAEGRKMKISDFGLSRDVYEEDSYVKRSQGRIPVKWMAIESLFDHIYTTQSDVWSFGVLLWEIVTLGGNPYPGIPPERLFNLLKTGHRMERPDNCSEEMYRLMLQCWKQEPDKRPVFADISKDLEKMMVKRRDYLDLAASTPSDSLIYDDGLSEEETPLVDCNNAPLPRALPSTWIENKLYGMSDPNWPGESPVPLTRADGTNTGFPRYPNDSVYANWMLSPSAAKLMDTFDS

Structure (SMILES) | IC50 ([2]; 10% FBS) | IC50 ([3]; wild type RET, 1 mM ATP) | IC50 [1, 6] | IC50 [1, 4] | IC50 [1, 5] | IC50 [2] | IC50 [1] | IC50 [3]
Cn1cc(-c2cc(-c3ccc(N4CCN(C(=O)CNC(C)(C)C)CC4)nc3)c3c(C#N)cnn3c2)cn1 [Example 22, 4-(6-(4-(2-(tert-butylamino)acetyl)piperazin-1-yl)pyridin-3-yl)-6-(1-methyl-1H-pyrazol-4-yl)pyrazolo[1,5-a]pyridine-3-carbonitrile dihydrochloride] | 630 nM | 14.8 nM | – | 22.5 nM | – | – | – | –
CCC1(C(=O)NC(C)C)CCN(c2ccc(-c3cc(-c4cn(C)nc4C)cn4ncc(C#N)c34)cn2)CC1 [Example 599, 1-(5-(3-cyano-6-(1,3-dimethyl-1H-pyrazol-4-yl)pyrazolo[1,5-a]pyridin-4-yl)pyridin-2-yl)-4-ethyl-N-isopropylpiperidine-4-carboxamide] | – | 27.6 nM | – | – | 16.5 nM | 4860 nM | – | –
COc1ccc(CN2CCN(c3ccc(-c4cc(-c5cnn(C)c5)cn5ncc(C#N)c45)cn3)CC2)nc1 [Example 458, 4-(6-(4-((5-methoxypyridin-2-yl)methyl)piperazin-1-yl)pyridin-3-yl)-6-(1-methyl-1H-pyrazol-4-yl)pyrazolo[1,5-a]pyridine-3-carbonitrile] | – | 6.9 nM | – | – | – | 324 nM | 2.4 nM | –
Cn1cc(-c2cc(-c3ccc(N4CCC(C(=O)NOC(C)(C)C)CC4)nc3)c3c(C#N)cnn3c2)cn1 [Example 565, N-(tert-butoxy)-1-(5-(3-cyano-6-(1-methyl-1H-pyrazol-4-yl)pyrazolo[1,5-a]pyridin-4-yl)pyridin-2-yl)piperidine-4-carboxamide] | – | 6.4 nM | – | – | 10.3 nM | 540 nM | – | –
COC[C@H](O)CN1CCN(c2ccc(-c3cc(-c4cnn(C)c4)cn4ncc(C#N)c34)cn2)CC1 [Example 151, (R)-4-(6-(4-(2-hydroxy-3-methoxypropyl)piperazin-1-yl)pyridin-3-yl)-6-(1-methyl-1H-pyrazol-4-yl)pyrazolo[1,5-a]pyridine-3-carbonitrile] | 1430 nM | 44 nM | 70.4 nM | – | – | – | – | –
CC(C)NC(=O)CN1CCN(c2ccc(-c3cc(-c4cnn(C)c4)cn4ncc(C#N)c34)cn2)CC1 [Example 144, 2-(4-(5-(3-cyano-6-(1-methyl-1H-pyrazol-4-yl)pyrazolo[1,5-a]pyridin-4-yl)pyridin-2-yl)piperazin-1-yl)-N-isopropylacetamide 2,2,2-trifluoroacetate] | 1680 nM | – | 58.9 nM | – | – | – | – | 25.2 nM
Cn1cc(-c2cc(-c3ccc(N4CCC(N)CC4)nc3)c3c(C#N)cnn3c2)cn1 [Example 177, 4-(6-(4-aminopiperidin-1-yl)pyridin-3-yl)-6-(1-methyl-1H-pyrazol-4-yl)pyrazolo[1,5-a]pyridine-3-carbonitrile dihydrochloride] | 1180 nM | 47 nM | – | 69.9 nM | – | – | – | –
COC(CNC(=O)C1CCN(c2ccc(-c3cc(-c4cnn(C)c4)cn4ncc(C#N)c34)cn2)CC1)C(F)(F)F (stereo not drawn) [Example 235, 1-(5-(3-cyano-6-(1-methyl-1H-pyrazol-4-yl)pyrazolo[1,5-a]pyridin-4-yl)pyridin-2-yl)-N-(3,3,3-trifluoro-2-methoxypropyl) piperidine-4-carboxamide] | 1510 nM | 7.4 nM | 5.1 nM | – | – | – | – | –
CC(C)C[C@@H](O)C(=O)N1CCN(c2ccc(-c3cc(-c4cnn(C)c4)cn4ncc(C#N)c34)cn2)CC1 [Example 53, (R)-4-(6-(4-(2-hydroxy-4-methylpentanoyl)piperazin-1-yl)pyridin-3-yl)-6-(1-methyl-1H-pyrazol-4-yl)pyrazolo[1,5-a]pyridine-3-carbonitrile] | 305 nM | 4.4 nM | 9.9 nM | – | – | – | – | –
Cn1cc(-c2cc(-c3ccc(N4CCC(C)(N)CC4)nc3)c3c(C#N)cnn3c2)cn1 [Example 202, 4-(6-(4-amino-4-methylpiperidin-1-yl)pyridin-3-yl)-6-(1-methyl-1H-pyrazol-4-yl)pyrazolo[1,5-a]pyridine-3-carbonitrile dihydrochloride] | 992 nM | – | 110 nM | – | – | – | – | 41.7 nM
Cn1cc(-c2cc(-c3ccc(N4CCN(CC(O)C(C)(C)C)CC4)nc3)c3c(C#N)cnn3c2)cn1 (stereo not drawn) [Example 148, 4-(6-(4-(2-hydroxy-3,3-dimethylbutyl)piperazin-1-yl)pyridin-3-yl)-6-(1-methyl-1H-pyrazol-4-yl)pyrazolo[1,5-a]pyridine-3-carbonitrile] | 1060 nM | 19.8 nM | 46.7 nM | – | – | – | – | –
Cn1cc(-c2cc(-c3ccc(N4CCN(CCOC(C)(C)C)CC4)nc3)c3c(C#N)cnn3c2)cn1 [Example 420, 4-(6-(4-(2-(tert-butoxy)ethyl)piperazin-1-yl)pyridine-3-yl)-6-(1-methyl-1H-pyrazol-4-yl)pyrazolo[1,5-a]pyridine-3-carbonitrile] | – | 10.9 nM | – | – | 5.6 nM | 792 nM | – | –

Now from value to molecule, other results behind:

IC50 ([2]; 10% FBS) | IC50 ([3]; wild type RET, 1 mM ATP) | IC50 [1, 6] | Structure (SMILES) | IC50 [1, 4] | IC50 [1, 5] | IC50 [2] | IC50 [1] | IC50 [3]
1030 nM | 12.8 nM | 35.4 nM | COCCNC(=O)N1CCN(c2ccc(-c3cc(-c4cnn(C)c4)cn4ncc(C#N)c34)cn2)CC1 [Example 135, 4-(5-(3-cyano-6-(1-methyl-1H-pyrazol-4-yl)pyrazolo[1,5-a]pyridin-4-yl)pyridin-2-yl)-N-(2-methoxyethyl)piperazine-1-carboxamide] | – | – | – | – | –
2550 nM | 36.7 nM | 76.1 nM | Cn1cc(-c2cc(-c3ccc(N4CCN(C(=O)C(C)(C)O)CC4)nc3)c3c(C#N)cnn3c2)cn1 [Example 31, 4-(6-(4-(2-hydroxy-2-methylpropanoyl)piperazin-1-yl)pyridin-3-yl)-6-(1-methyl-1H-pyrazol-4-yl)pyrazolo[1,5-a]pyridine-3-carbonitrile] | – | – | – | – | –
446 nM | 9.2 nM | 12.3 nM | COC(=O)C1(C)CCN(c2ccc(-c3cc(-c4cnn(C)c4)cn4ncc(C#N)c34)cn2)CC1 [Example 254, Methyl 1-(5-(3-cyano-6-(1-methyl-1H-pyrazol-4-yl)pyrazolo[1,5-a]pyridin-4-yl)pyridin-2-yl)-4-methylpiperidine-4-carboxylate] | – | – | – | – | –
596 nM | 16.1 nM | 8.4 nM | C[C@@H](NC(=O)C1(C)CCN(c2ccc(-c3cc(-c4cnn(C)c4)cn4ncc(C#N)c34)cn2)CC1)C(F)(F)F [Example 253, (R)-1-(5-(3-cyano-6-(1-methyl-1H-pyrazol-4-yl)pyrazolo[1,5-a]pyridin-4-yl)pyridin-2-yl)-4-methyl-N-(1,1,1-trifluoropropan-2-yl)piperidine-4-carboxamide] | – | – | – | – | –
560 nM | 5.8 nM | 5.2 nM | CC(C)C(=O)NC1(C)CCN(c2ccc(-c3cc(-c4cnn(C)c4)cn4ncc(C#N)c34)cn2)CC1 [Example 203] | – | – | – | – | –
902 nM | 8.2 nM | 39.3 nM | Cn1cc(-c2cc(-c3ccc(N4CCN(C(=O)CC(C)(C)C)CC4)nc3)c3c(C#N)cnn3c2)cn1 [Example 65, 4-(6-(4-(3,3-dimethylbutanoyl)piperazin-1-yl)pyridin-3-yl)-6-(1-methyl-1H-pyrazol-4-yl)pyrazolo[1,5-a]pyridine-3-carbonitrile] | – | – | – | – | –
495 nM | 7.8 nM | 5.6 nM | CC(C)NC(=O)C1(C)CCN(c2ccc(-c3cc(-c4cnn(C)c4)cn4ncc(C#N)c34)cn2)CC1 [Example 251, 1-(5-(3-cyano-6-(1-methyl-1H-pyrazol-4-yl)pyrazolo[1,5-a]pyridin-4-yl)pyridin-2-yl)-N-isopropyl-4-methylpiperidine-4-carboxamide] | – | – | – | – | –
